Measurements published in patent US20030170643A1, “Regulation of apoB treatment and drug screening for cardiovascular and metabolic disorders or syndromes” (priority 1999, published 2003).

Columns and labels:
Assay type in all cases: cell-based
McArdle RH-7777 cells = experiment: Secretion of labeled apoB and apoE by McArdle RH-7777 cells after MTP inhibition; conditions: rat hepatoma cells, 4 hr, MTP inhibitor
Procedure: FIG. 7 illustrates that inhibition of MTP reduces the secretion of newly synthesized apoB100 without affecting apoE. Rat McA hepatoma cells were incubated at 37 °C for 4 hr with [ ^35S]methionine in the absence (Control) or presence (MTPI) of an inhibitor of MTP activity. Equal aliquots of the conditioned media samples from duplicate wells were subjected to separate immunoprecipitations with anti-apoB or anti-apoE antiserum. For each well, the resulting pellets from the two immunoprecipitations were combined and analyzed by SDS-PAGE and fluorography.
To determine the differential effects of MTP inhibition on the secretion of labeled apoB and apoE, in some experiments, McArdle RH-7777 cells were pre-treated for 30 min with MTP inhibitor BMS-200150 ([…] dissolved in DMSO; (Jamil, H., Gordon, D. A., Eustice, D. C., Brooks, C. M., Dickson, J. K., Jr., Chen, Y., Ricci, B., Chu, C.-H., Harrity, T. W., Ciosek, C. P., Jr., Biller, S. A., Gregg, R. E., and Wetterau, J. R. (1996) Proc Natl Acad Sci USA 93, 11991-11995)) or DMSO alone (final concentration 0.5%) before adding radiolabel. The cells were further incubated for 4 hr and the conditioned media contents of apoB and apoE determined by immunoprecipitation and SDS-PAGE analysis as described above.

rat primary hepatocytes [1] = experiment: Secretion of newly synthesized ([35S]methionine-labeled) VLDL-apoproteins by rat primary hepatocytes incubated with fatty acid/BSA complexes; conditions: fatty acid/BSA complexes (0.8 mM FA), VLDL fraction
Procedure: Cells were plated at a density of 2×10^6 cells/ml on 60-mm culture dishes (previously coated with poly-D-lysine) in modified M199 medium (M199, 1% fetal bovine serum [FBS], 1 mM nicotinamide, 0.1 nM insulin, 3 mg/ml choline, 1.1% L-glutamine, 1% BSA). After a four-hour attachment period, the medium was changed (modified M199 identical to the above except BSA was omitted and the concentration of FBS was raised to 10%). The next morning, cells were washed in serum-free medium three times, the experimental media added, and the cells incubated at 37° C. for 4-6 hours. The experimental medium consisted of serum-free RPMI containing the appropriate isotopes (see below) and fatty acids (FA) present at a final concentration of 0.8 mM complexed to BSA (FA:BSA molar ratio=5:1). The fatty acids used were oleic (OA), EPA, and DHA. Control medium was identical, except that BSA (0.16 mM) without fatty acids was present. For metabolic labeling of proteins, [^35S]methionine (70 uCi/ml) was included in the experimental media.
Following the 4-6 hour incubation period, the cell monolayer was washed, then solubilized in 0.1 M NaOH, and the cell protein determined by the Lowry method (Lowry, O. H., Rosebrough, N. J., Farr, A. L., and Randall, R. J. (1951) J Biol Chem 193, 265-75). Each 60 mm dish contained approximately 1-1.5 mg of cell protein. The secreted apoproteins were isolated from the medium either by ultracentrifugation or immunoprecipitation. To isolate the d<1.006 (VLDL) and 1.006<d<1.063 (IDL and LDL) g/ml density classes by centrifugation, sequential 20 hour runs at 48,000 rpm in a 50 Ti Beckman rotor at 4° C. were performed. After the first run at d=1.006, the upper VLDL layer was harvested and the density of the infranatant adjusted to 1.066 g/ml with solid KBr. After being overlaid with a KBr solution of density 1.063, the adjusted infranatant was re-centrifuged as before to isolate the IDL and LDL fractions. In some experiments, the HDL fraction (1.063<d<1.21) was isolated by sequential density centrifugation. Lipoprotein fractions were then dialyzed against 0.9% NaCl containing 10 mM unlabeled methionine, 0.2 mM PMSF, and 2 mM EDTA. Dialyzed lipoproteins were delipidated using 9 volumes of 100% isopropanol. Apoproteins were then collected by centrifugation in a Sorval HB-4 rotor at 10,000 rpm and 4° C. for 20 min, and dissolved in buffer (0.01 M phosphate, pH 7,1 % SDS, 10% glycerol), in preparation for electrophoresis.
To immunoprecipitate apoB or apoE from unfractionated conditioned medium, monospecific rabbit antiserum to rat apoB or apoE was used. Briefly, an aliquot of the medium was mixed with an equal volume of diluted antiserum (1:100 in PBS and 1% BSA) and incubated overnight at 4° C. Staph A was added in the form of immunoprecipitin, and the resultant precipitate containing the immune complexes was washed extensively, the staph A cells removed, and the isolated apoprotein dissolved in gel sample buffer (0.0625M tris/Cl, pH 6.8, 20% glycerol, 2% SDS). Electrophoretic separation of apoVLDL, apoIDL/LDL, and immunoprecipitates was accomplished using 3.5% acrylamide-18% glycerol gels as described (Maguire, G. F., Lee, M., and Connelly, P. W. (1989) J Lipid Res 30, 757-61). An aliquot of each sample was taken for scintillation counting, so that total radioactivity applied to each lane could be determined. Also, protein size standards were included in each gel.
After electrophoresis, the gels were stained, fixed, soaked in Enhance fluor solution, and dried following protocols supplied by the manufacturer. Dried gels were then exposed to X-ray film at −70° C. and signals on the resulting fluorograms were typically quantified by densitometry or phosphorimaging. Using the total radioactivity applied to each lane of the gel and the relative signal intensity of each band in that lane, the radioactivity associated with each apoprotein species was calculated. […]

rat primary hepatocytes [2] = experiment: Nascent VLDL re-uptake: VLDL-apoprotein secretion with or without heparin
Procedure: FIG. 9 illustrates that DHA inhibits the secretion of newly synthesized VLDL-apoproteins even when re-uptake is blocked. Rat primary hepatocytes were treated as in FIG. 1, except that media in the indicated wells also was supplemented with heparin (10 mg/ml). Total labeled VLDL-apoproteins were determined as in FIG. 3. The results for the fatty acids are expressed relative to the corresponding result for BSA and are shown as mean ±SE (n=6).
To evaluate whether there were differential effects of fish oil fatty acids and OA on the re-uptake of newly synthesized VLDL, an experimental design identical to that described above was employed, except heparin (0.1 mg/ml or 10 mg/ml) was added to the treatment media to block LDL receptor-dependent and proteoglycan-mediated re-uptake (Williams, K. J., Fless, G. M., Petrie, K. A., Snyder, M. L., Brocia, R. W., and Swenson, T. L. (1992) J Biol Chem 267(19), 13284-92). Control experiments were performed showing that the flotation properties of VLDL were unchanged in the presence of heparin.
The concentration of heparin was 10 mg/ml, which blocks lipoprotein binding to both LDL receptors and HSPGs (Williams, K. J. et al. (1992) J Biol Chem 267(19), 13284-92, and citations therein). […] Thus, there is substantial re-uptake of nascent VLDL by primary hepatocytes in the presence of either fatty acid. […] Thus, re-uptake of newly exported apoB cannot explain the effect of Ω-3 fatty acids on lipoprotein secretion.

O=C1c2ccccc2CN1C1CCN(CCC(c2ccccc2)c2ccccc2)CC1 [BMS compound #200150]
secretion of newly synthesized apoB100 (McArdle RH-7777 cells): almost completely abolished | secretion of newly synthesized apoE (McArdle RH-7777 cells): no significant effect

CC/C=C\C/C=C\C/C=C\C/C=C\C/C=C\C/C=C\CCC(=O)O [DHA, docosahexaenoic acid]
secretion of newly synthesized VLDL-ApoB48, percentage of secretion observed with BSA alone (rat primary hepatocytes [1]): 39 ± 3 percentage | secretion of newly synthesized VLDL-ApoB100, percentage of secretion observed with BSA alone (rat primary hepatocytes [1]): 24 ± 3 percentage | secretion of newly synthesized VLDL-ApoE, percentage of secretion observed with BSA alone (rat primary hepatocytes [1]): 53 ± 2 percentage | secretion of VLDL apoproteins, % of the OA control (rat primary hepatocytes [2]; independent of heparin treatment (10 mg/ml)): approximately 50%

heparin
apoB output in the presence of either fatty acid (rat primary hepatocytes [2]; heparin 0.1 mg/ml): failed to increase | net secretion of newly synthesized VLDL-apoproteins during treatment with either OA or DHA (rat primary hepatocytes [2]; heparin 10 mg/ml, P<0.01): approximately two-fold
